According to ChEMBL document CHEMBL1201862, “PubChem BioAssay data set” (2004):
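Assay format: 96-well plates, 48-hour exposure. GI50 is the concentration that inhibits growth by half.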 Active and inactive are the calls of the source. Cut-off read from the data, not from the text of the source: active = GI50 up to about 1.1 µM and inactive = higher.

How the values were obtained:
Experiment in all cases: NCI-60 cell line screen, 48 h
[1] = test system: SF-268
[2] = test system: OVCAR-8
[3] = test system: NCI-H522
[4] = test system: SK-MEL-2
[5] = test system: HOP-92
[6] = test system: MOLT-4
[7] = test system: K562
[8] = test system: BT-549
[9] = test system: EKVX
[10] = test system: MDA-MB-231
[11] = test system: SNB-19
[12] = test system: U-251
[13] = test system: MDA-N
[14] = test system: LOX IMVI
[15] = test system: PC-3
[16] = test system: COLO 205
[17] = test system: SK-MEL-5
[18] = test system: SR
[19] = test system: HT-29
[20] = test system: HCC 2998

In the case of `O=C(N/N=C\c1ccc([N+](=O)[O-])cc1)Nc1cccc2ccccc12`, the GI50 [1] was 4.88 µM (inactive), the GI50 [2] was 6.03 µM (inactive) and the GI50 [3] was 20.4 µM (inactive). For the same compound, the GI50 [4] was 5.55 µM (inactive), the GI50 [5] was 6.15 µM (inactive) and the GI50 [6] was > 100 µM (inactive). For the same compound, the GI50 [7] was > 100 µM (inactive), the GI50 [8] was 4.25 µM (inactive) and the GI50 [9] was 29.1 µM (inactive). For the same compound, the GI50 [10] was 14.1 µM (inactive), the GI50 [11] was 5.07 µM (inactive) and the GI50 [12] was 4.79 µM (inactive). For the same compound, the GI50 [13] was > 100 µM (inactive), the GI50 [14] was 22.5 µM (inactive) and the GI50 [15] was 23 µM (inactive). The GI50 [16] was > 100 µM (inactive), the GI50 [17] was 31.3 µM (inactive) and the GI50 [18] was > 55.1 µM (inactive). The GI50 [19] was > 100 µM (inactive) and the GI50 [20] was 24.1 µM (inactive).
In the case of `COC(=O)CNC(=O)CCC(C)[C@H]1CCC2C3C(C[C@H](OC(C)=O)[C@@]21C)[C@@]1(C)CCC2(C[C@H]1C[C@H]3OC(C)=O)OOC1(CC[C@]3(C)C4C[C@H](OC(C)=O)[C@@]5(C)C(CC[C@@H]5C(C)CCC(=O)NCC(=O)OC)C4[C@H](OC(C)=O)C[C@@H]3C1)OO2` (stereo not given in full), the GI50 [1] was 2.19 µM (inactive), the GI50 [2] was 0.746 µM (active) and the GI50 [3] was 0.991 µM (active). The GI50 [4] was 0.764 µM (active), the GI50 [5] was 0.942 µM (active) and the GI50 [6] was 0.163 µM (active). For the same compound, the GI50 [7] was 1.38 µM (inactive), the GI50 [8] was > 50 µM (inactive) and the GI50 [9] was 0.993 µM (active). The GI50 [10] was 1.31 µM (inactive), the GI50 [11] was 37.2 µM (inactive) and the GI50 [12] was 3.78 µM (inactive). For the same compound, the GI50 [13] was 3.44 µM (inactive), the GI50 [14] was 0.962 µM (active) and the GI50 [15] was 1.64 µM (inactive). For the same compound, the GI50 [16] was 0.875 µM (active), the GI50 [17] was 0.94 µM (active) and the GI50 [18] was 0.381 µM (active). The GI50 [19] was 1.01 µM (active) and the GI50 [20] was 0.944 µM (active).
For `c1ccc(-c2cc(C3CO3)c3ccccc3n2)cc1` (stereo not given), the GI50 [1] was 20 µM (inactive), the GI50 [2] was 20 µM (inactive) and the GI50 [3] was 3.99 µM (inactive). The GI50 [4] was 18.4 µM (inactive), the GI50 [5] was 20 µM (inactive) and the GI50 [6] was 23.7 µM (inactive). For the same compound, the GI50 [7] was 34.4 µM (inactive), the GI50 [8] was 20.7 µM (inactive) and the GI50 [9] was 18.2 µM (inactive). For the same compound, the GI50 [10] was 23.3 µM (inactive), the GI50 [11] was 29.1 µM (inactive) and the GI50 [12] was 16 µM (inactive). The GI50 [13] was 19.1 µM (inactive), the GI50 [14] was 18.6 µM (inactive) and the GI50 [15] was 19.5 µM (inactive). For the same compound, the GI50 [16] was 19.7 µM (inactive), the GI50 [17] was 16.7 µM (inactive) and the GI50 [18] was 18.3 µM (inactive). The GI50 [19] was 19.4 µM (inactive) and the GI50 [20] was 20 µM (inactive).
For `C=CCN1C(=O)/C(=C/c2ccco2)N=C1SC/C=C/C`, the GI50 [1] was 49.2 µM (inactive), the GI50 [2] was 24.1 µM (inactive) and the GI50 [3] was 34 µM (inactive). For the same compound, the GI50 [4] was 29.4 µM (inactive), the GI50 [5] was 21.6 µM (inactive) and the GI50 [6] was 19.5 µM (inactive). The GI50 [7] was 32.4 µM (inactive), the GI50 [8] was 40.2 µM (inactive) and the GI50 [9] was 37.7 µM (inactive). The GI50 [10] was 67.9 µM (inactive), the GI50 [11] was 71.3 µM (inactive) and the GI50 [12] was 49.2 µM (inactive). For the same compound, the GI50 [13] was 21.7 µM (inactive), the GI50 [14] was 26.5 µM (inactive) and the GI50 [15] was 39 µM (inactive). The GI50 [16] was 36 µM (inactive), the GI50 [17] was 20.6 µM (inactive) and the GI50 [18] was 21.6 µM (inactive). For the same compound, the GI50 [19] was 40.4 µM (inactive) and the GI50 [20] was 93.8 µM (inactive).
In the case of `O=C1OC(C2Cc3ccccc3C2=O)c2ccccc21` (stereo not given), the GI50 [1] was > 100 µM (inactive), the GI50 [2] was > 100 µM (inactive) and the GI50 [3] was > 100 µM (inactive). For the same compound, the GI50 [4] was > 100 µM (inactive), the GI50 [5] was > 100 µM (inactive) and the GI50 [6] was > 100 µM (inactive). For the same compound, the GI50 [7] was > 100 µM (inactive), the GI50 [8] was > 100 µM (inactive) and the GI50 [9] was > 100 µM (inactive). For the same compound, the GI50 [10] was > 100 µM (inactive), the GI50 [11] was > 100 µM (inactive) and the GI50 [12] was > 100 µM (inactive). The GI50 [13] was > 100 µM (inactive), the GI50 [14] was 99.1 µM (inactive) and the GI50 [15] was > 100 µM (inactive). For the same compound, the GI50 [16] was > 100 µM (inactive), the GI50 [17] was > 100 µM (inactive) and the GI50 [18] was > 100 µM (inactive). For the same compound, the GI50 [19] was 26.1 µM (inactive) and the GI50 [20] was > 100 µM (inactive).
